The text below walks through data of patent publication US20250057791A1, “PROTECTION AGAINST ARTHROPOD PARASITES WITH PURINERGIC RECEPTOR (OPR) ANTAGONISTS” (priority 2021, published 2025).

One assay deals with A. gambiae. The assay is described as follows: Membrane feeding assay, A. gambiae. It counts as in vivo, Anopheles gambiae. As to the method:
Experiments with A. gambiae and A. stephensi were made in a climate chamber at 28° C. and 80% RH during the last 6 hours of scotophase. As a sugar meal can interfere with the blood meal by reducing the number of females that feed, the sucrose solution supplied in rearing cages to mosquitoes employed for feeding experiments was reduced to 5%. […] The 5% sucrose solution was presented to mosquitoes from emergence on four 1 cm diam. cotton dental rolls (Hartmann A G, Neuhausen, Switzerland) inserted in 10 ml upturned glass vials placed in holes at each corner of the rearing cage ceiling. Cotton rolls were turned daily in vials and renewed every two days. Mosquitoes were not fed blood and were deprived of sucrose 17 to 20 hours before experiments. Thirty min before a feeding experiment, between 10-25, 6-day-old females that responded to activation by human breath were removed with a mouth aspirator from the rearing cage wall and placed in polystyrol cylinders with the floor cut out (10 cm dm×15 cm high; Semadeni, Ostermundigen, Switzerland) that served as feeding cages. Each cage was covered with mosquito netting at one end and a soft polyurethane lid at the other.
Mosquitoes were fed for 30 min using a feeding system (Hemotek®, Hemotek Ltd, Blackburn, UK) consisting of 3.5 ml stainless steel reservoirs 37 mm in diameter covered with a 60-90 μm thick silicone-impregnated membrane (Kröber and Guerin, 2007 in “Feeding assays for hard ticks”, Trends in parasitology 23, 445-449; doi 10.1016/j.pt.2007.07.010). Feeding reservoirs reached a temperature of 37° C. within 10 min and were placed on the netting of feeding cages. Mosquitoes were activated using a 200 ms pulse of pure CO2 (volume 6.25 ml) from a pressurised cylinder (Carbagas, Switzerland) using a solenoid valve that caused the CO2 level in the feeding cage to rise to at least 1,500 ppm. Between 3 and 4 sets of 10 feeding cages held in a custom-built Ertacetal® POM frame were tested per day, depending of the number of female mosquitoes available from the colony.
All compounds were tested in a mosquito feeding solution (FS) consisting of 25 mM dextrose, 25 mM NaCl buffered with 8.93 mM NaHCO3 adjusted to pH 7.4. Feeding responses of A. gambiae and A. stephensi to ATP as a function of dose were tested with between 7 to 10 feeding cages per dose. Each feeding experiment with an antagonist systematically included a treatment containing the FS as negative control along with a treatment containing the FS with […] added as positive control for A. gambiae and with […] added as positive control for A. stephensi. These positive and negative controls permitted to monitor any effect of experimental day on feeding responses as a function of dose for antagonists that were recorded over several days. […] Four to 10 cages each with 10 to 29 mosquitoes were tested per antagonist dose. […] The number of feeding cages used to test other compounds and their mixtures as feeding stimulants or as feeding inhibitors is listed on Table 6. The percentage of fed mosquitoes was estimated by visual inspection of abdominal distention that is indicative of engorgement.
Pairwise comparisons of A. gambiae electrophysiological (EP) responses to ATP and adenosine alone and combined with a given dose of PR antagonist, EP responses to ATP alone and combined with a given dose of a metal modulator, and EP responses to ATP prior to and after exposure of a sensillum to a given dose of a PR antagonist were made with a one-tailed Wilcoxon signed-rank test for data showing a non-normal distribution, with a paired Student's t-test for normally distributed data showing homogeneous variance and with a Welch's t-test for normally distributed data showing non-homogeneous variance. […]

Another assay has as its system malaria mosquito P1 PR. Put plainly: Electrophysiological response to 200 pM adenosine with PR antagonist admixed. It counts as cell-based, Anopheles gambiae. As for the experimental part: (§1) The tip recording method was used to record action potentials (spikes) from sensory cells in sensilla on A. gambiae labellum lobes.
Sensilla were exposed to test compounds and PR antagonists for ca. 2-4 s and spikes were counted in the first 2 s of recordings. Up to 4 test compounds were tested on a sensillum to evaluate potential agonists, each presented at 200 pM. To study responses as a function of dose for agonists ATP, adenosine, AMP, AMP-CPP and ATP+adenosine, up to 7 recordings were made at increasing doses of agonist from the same sensillum. Unless otherwise stated, recordings were made throughout from 4 to 16 sensilla from individual 4-6-day-old females per dose of agonist, antagonist and metal ion modulator. For example, a response curve established over 6 doses of an antagonist using 8 sensilla per dose involved recording from a sensillum of 48 separate mosquitoes. A given dose of a PR antagonist or metal ion modulator was only presented once to a sensillum. Two-second recordings were imported as ASCII files into DataView software for analysis of spike amplitude. […]
Pairwise comparisons of A. gambiae electrophysiological (EP) responses to ATP and adenosine alone and combined with a given dose of PR antagonist, EP responses to ATP alone and combined with a given dose of a metal modulator, and EP responses to ATP prior to and after exposure of a sensillum to a given dose of a PR antagonist were made with a one-tailed Wilcoxon signed-rank test for data showing a non-normal distribution, with a paired Student's t-test for normally distributed data showing homogeneous variance and with a Welch's t-test for normally distributed data showing non-homogeneous variance. […] Percent feeding inhibition induced by PR antagonists in A. stephensi was calculated using Abbott's formula.

Assay [1] concerns A. gambiae mouthpart ATP-sensitive receptor. Put plainly: Electrophysiological response to 200 pM ATP with PR antagonist admixed. It counts as cell-based, Anopheles gambiae. Conditions: 200 pM ATP; suramin at 1 nM. As to the method: as §1
Sensilla were exposed to test compounds and PR antagonists for ca. 2-4 s and spikes were counted in the first 2 s of recordings. Up to 4 test compounds were tested on a sensillum to evaluate potential agonists, each presented at 200 pM. To study responses as a function of dose for agonists ATP, adenosine, AMP, AMP-CPP and ATP+adenosine, up to 7 recordings were made at increasing doses of agonist from the same sensillum. Unless otherwise stated, recordings were made throughout from 4 to 16 sensilla from individual 4-6-day-old females per dose of agonist, antagonist and metal ion modulator. For example, a response curve established over 6 doses of an antagonist using 8 sensilla per dose involved recording from a sensillum of 48 separate mosquitoes. A given dose of a PR antagonist or metal ion modulator was only presented once to a sensillum. Two-second recordings were imported as ASCII files into DataView software for analysis of spike amplitude. Differences in spike amplitude generated by stimulation of one 8v sensillum/female with 1 mM sucrose (n=294 spikes from 6 females) 200 pM adenosine (n=207 spikes from 7 females) and 200 pM ATP (n=192 spikes from 7 females) were compared by measuring the spike amplitude in mV between the highest point of depolarisation and the lowest point of hyperpolarisation.
Pairwise comparisons of A. gambiae electrophysiological (EP) responses to ATP and adenosine alone and combined with a given dose of PR antagonist, EP responses to ATP alone and combined with a given dose of a metal modulator, and EP responses to ATP prior to and after exposure of a sensillum to a given dose of a PR antagonist were made with a one-tailed Wilcoxon signed-rank test for data showing a non-normal distribution, with a paired Student's t-test for normally distributed data showing homogeneous variance and with a Welch's t-test for normally distributed data showing non-homogeneous variance. Effects on feeding of adding ATP, AMP-CPP, adenosine, ATP+adenosine, AMP and ADP-βS, CPT with ATP or adenosine, TMP with ATP+adenosine, TMP+CPT with ATP+adenosine to the FS for A. gambiae, and of adding PR antagonists with ATP to the FS for A. stephensi were compared using one-tailed Mann-Whitney U-test or Welch's t-test, depending on data distribution; Holm's FWEC was applied where treatment comparisons involved the same positive control. Percent feeding inhibition induced by PR antagonists in A. stephensi was calculated using Abbott's formula.
Dose-response models fitted to mosquito data were generated using the ‘drm’ command in the “drc” R package (version 2.5-12). Best fitting models (goodness of fit) and effects of dose of a compound were assessed using, respectively, ‘modelFit’ and ‘noEffect’ functions in the same R package. A 3-parameter logistic model (L3) was fitted to spike-counts recorded to increasing doses of adenosine, AMP, ATP and AMP-CPP. Spike numbers recorded in response to 200 pM ATP with increasing doses of PR antagonists added were analysed using a 4-parameter log-logistic model (LL.4) for A-317491 and spinorphin, using a 4-parameter Weibull model (W1.4) for PPADS, RB-2 and TMP, and using a 3-parameter log-logistic model (LL.3) for suramin. An L3 model was fitted to proportions of females feeding on increasing doses of ATP. Feeding rates on 20 μM ATP with increasing doses of a PR antagonist added were analysed using a 4-parameter log-logistic model (LL.4) with the median of the positive control (20 μM ATP) fixed as the upper asymptote. Response dynamics in 3-parameter models are related to the slope b, the upper asymptote, and inflexion point of the model e (the ED50 value), whereas 4 parameter models also include the lower asymptote parameter. […]

Turning to `Cn1c(=O)c2[nH]c(C3CCCC3)nc2n(C)c1=O` [CPT, 8-cyclopentyl-1,3-dimethylxanthine], the entries for the “% Engorged mosquitoes” value in the assay on A. gambiae (10 μM CPT + 20 μM ATP) and with A. gambiae (10 μM CPT + 1 mM Adenosine) were 65.4 ± 10.2% and 48.7 ± 7.0%, respectively. The “effect on feeding on adenosine, in words” value in the assay on A. gambiae (10 μM CPT, 1 mM adenosine in feeding solution) is listed as “significantly inhibited”. In the assay with A. gambiae (20 μM ATP, CPT at 10 μM), the “effect on feeding on solution containing ATP, in words” value was “not”. In the assay on malaria mosquito P1 PR (200 pM adenosine, suramin at 1 nM), the “effect on EP response to adenosine, in words” value was “inhibited”. Further, the “duration of inhibition of the response to adenosine” value in the assay with malaria mosquito P1 PR (adenosine presented again approximately 2 min after antagonist) is “at least 2 min”. For the same compound, the “effect on EP response to ATP, in words” value in assay [1] is on record as “not”.
